Source: patent US5932623A, “Process for the production of fruit polyphenols from unripe rosaceae fruit” (The Nikka Whisky Distilling Co., Ltd.,, priority 1993, dated 1999)
Read-outs that look alike come from different tables or passages of the source.

Key:
[1] = tested on: Salmonella typhimurium TA 98 or TA 100; assay: Antimutagenic activity, modified Ames method with S 9-mix; assay type: cell-based; settings: amount per plate
Description: In this Example, antimutagenic activity was measured by modifying the ames method (Mutation Research, vol. 31, p. 347, 1975).
An antimutagenic compound [benzo(a)pyrene or Trp-P-2] solution was mixed with a phosphate buffer solution, a sample solution, S 9-mix and a salmonella (a solution obtained by culturing Salmonella typhimurium TA 98 or TA 100 overnight). The mixture was cultured at 37° C. for 2 days. The number of the resulting colonies was counted. The amount of each polyphenol used was shown based on a scale expressed in geometric progression, between 1 and 300 μg/plate. Antimutagenic activity was calculated using the following formula: […]
antimutagenic activity (%)={(C-B)-(S-B)}).div.(C-B)×100 wherein S: number of colonies of test solution
C: number of colonies of control wherein water is used in place of the sample, and B: number of colonies of blank wherein water is used in place of the sample and the mutagenic com pound.

[2] = target: T1, ACE (angiotensin I converting enzyme) (Homo sapiens, UniProt P12821); assay: Test for ACE-inhibiting activity (commercial ACE, Bz-Gly-His-Leu substrate, fluorescence); assay type: biochemical
T1 construct: purchased
Description: The test for ACE-inhibiting activity was conducted by an ordinary method.
The ACE-inhibiting activity of the sample solution was expressed by the following formula: […]
where S: the fluorescent intensity of test solution,
C: the fluorescent intensity of comparative solution wherein water was used in place of the sample,
SB : the fluorescent intensity of blank for S (the blank contained water in place of the enzyme), and
CB : the fluorescent intensity of blank for C (the blank contained water in place of the enzyme).

[3] = Test method for antioxidative activity (peroxide formation from linolic acid, iron rhodanide method); settings: compound added at 2 μM/g (linolic acid); one week after addition; FIG. 4
Description: 5 ml of a base solution (ethanol containing 4% of linolic acid) was mixed with 4 ml of a phosphate buffer solution (pH=7.0) and 1 ml of a sample solution in a tightly stoppered test tube. The test tube was kept in a 50° C. thermostat under light shielding. Also kept under the same conditions were a test tube (control) containing ethanol in place of linolic acid and a test tube (blank) containing the sample solvent in place of the sample.
During the storage period, the reaction mixture was sampled with the lapse of time to quantitatively determine the amount of peroxide formed by the isothiocyanate method (the iron rhodanide method).

[4] = target: T2, GTase (glucosyltransferase) of S. sobrinus (Streptococcus downei, UniProt P27470); assay: Test for GTase-inhibiting activity (insoluble glucan formation, turbidity at 550 nm); assay type: biochemical, Streptococcus sobrinus ATCC 33478; settings: for GTase-inhibiting activity (in words): FIG. 17 and 18
T2 construct: Centrifugation was conducted to remove bacterial cells and obtain a supernatant; made in house; host or cells: S. sobrinus culture supernatant (native secreted enzyme, ammonium sulfate and hydroxyapatite purified)
Description: S. sobrinus was cultured in a TTY medium [Agric. Biol. Chem., 54 (11), pp. 2925-2929, 1990] at 37° C. for 18 hours. Centrifugation was conducted to remove bacterial cells and obtain a supernatant. To the supernatant was added ammonium sulfate to 50% saturation. Then, centrifugation was conducted to recover the resulting precipitate. The precipitate was redissolved in a 0.05 M phosphate buffer solution (pH 6.5). The resulting solution was dialyzed with the same buffer solution. The GTase in the dialyzate was purified and removed by hydroxyapatite chromatography. The GTase (capable of forming insoluble glucan) was eluted with an about 0.4 M phosphate buffer solution. The GTase-containing elute was used for the following test.
A purified GTase solution and a sample solution were added to 1 ml of a substrate solution [a 0.1 M phosphate buffer solution (pH 6.5) containing 2% of sucrose, 0.1% of sodium azide and 40 μM of dextran T10]. Water was added for dilution to make the total volume 2 ml. The resulting solution was subjected to a reaction at 37° C. for 18 hours. The amount of insoluble glucan formed by the reaction was measured as a turbidity expressed by an absorbance at 550 nm, and the formation ratio (%) of insoluble glucan was calculated using the following formula: […]
formation ratio (%) of insoluble glucan=(SS-SB).div.(CS-CB)×100 wherein SS: absorbance of sample, SB: absorbance of blank for sample (the blank contained no enzyme), CS: absorbance of control (containing no sample), and CB: absorbance of blank for control (the blank contained no sample and no enzyme).

hyaluronidase = target: T3, hyaluronidase (Bos taurus, UniProt Q2YDK3); assay: Test for hyaluronidase-inhibiting activity (commercial hyaluronidase activated with compound 48/80); assay type: biochemical; settings: FIG. 16
T3 construct: purchased
T3 sequence (Q2YDK3 36-553): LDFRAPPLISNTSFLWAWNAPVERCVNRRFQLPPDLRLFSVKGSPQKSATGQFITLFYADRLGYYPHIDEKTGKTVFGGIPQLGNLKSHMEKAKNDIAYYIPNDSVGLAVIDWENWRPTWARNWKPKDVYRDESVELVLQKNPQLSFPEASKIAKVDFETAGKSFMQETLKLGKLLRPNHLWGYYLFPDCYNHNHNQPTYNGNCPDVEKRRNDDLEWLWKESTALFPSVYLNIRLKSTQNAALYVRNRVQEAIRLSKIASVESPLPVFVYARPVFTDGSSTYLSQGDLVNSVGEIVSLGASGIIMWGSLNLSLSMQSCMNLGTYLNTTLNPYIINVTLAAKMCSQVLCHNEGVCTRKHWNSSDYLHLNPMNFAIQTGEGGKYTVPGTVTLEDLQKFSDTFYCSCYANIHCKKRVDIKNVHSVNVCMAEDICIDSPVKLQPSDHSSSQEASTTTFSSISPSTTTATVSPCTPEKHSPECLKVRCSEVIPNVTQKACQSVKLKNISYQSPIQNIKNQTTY
Description: That is, a sample solution was added to a commercial hyaluronidase solution, and preincubation was conducted. […] Then, a hyaluronic acid solution was added as a substrate, and a reaction was allowed to take place.
The N-acetylglucosamine produced by the above reaction was subjected to the Elson-Morgan's procedure to develop a color. […] Hyaluronidase-inhibiting activity (%) was calculated using the following formula:
(%)={(C-CB)-(S-SB)}.div.(C-CB)×100
wherein S: absorbance of test solution,
C: absorbance of control wherein a buffer solution is used in place of the sample,
SB : absorbance of blank for S (the blank contained no enzyme), and
CB : absorbance of blank for C (the blank contained no sample and no enzyme).

T1 sequence (P12821 30-1306, species assumed): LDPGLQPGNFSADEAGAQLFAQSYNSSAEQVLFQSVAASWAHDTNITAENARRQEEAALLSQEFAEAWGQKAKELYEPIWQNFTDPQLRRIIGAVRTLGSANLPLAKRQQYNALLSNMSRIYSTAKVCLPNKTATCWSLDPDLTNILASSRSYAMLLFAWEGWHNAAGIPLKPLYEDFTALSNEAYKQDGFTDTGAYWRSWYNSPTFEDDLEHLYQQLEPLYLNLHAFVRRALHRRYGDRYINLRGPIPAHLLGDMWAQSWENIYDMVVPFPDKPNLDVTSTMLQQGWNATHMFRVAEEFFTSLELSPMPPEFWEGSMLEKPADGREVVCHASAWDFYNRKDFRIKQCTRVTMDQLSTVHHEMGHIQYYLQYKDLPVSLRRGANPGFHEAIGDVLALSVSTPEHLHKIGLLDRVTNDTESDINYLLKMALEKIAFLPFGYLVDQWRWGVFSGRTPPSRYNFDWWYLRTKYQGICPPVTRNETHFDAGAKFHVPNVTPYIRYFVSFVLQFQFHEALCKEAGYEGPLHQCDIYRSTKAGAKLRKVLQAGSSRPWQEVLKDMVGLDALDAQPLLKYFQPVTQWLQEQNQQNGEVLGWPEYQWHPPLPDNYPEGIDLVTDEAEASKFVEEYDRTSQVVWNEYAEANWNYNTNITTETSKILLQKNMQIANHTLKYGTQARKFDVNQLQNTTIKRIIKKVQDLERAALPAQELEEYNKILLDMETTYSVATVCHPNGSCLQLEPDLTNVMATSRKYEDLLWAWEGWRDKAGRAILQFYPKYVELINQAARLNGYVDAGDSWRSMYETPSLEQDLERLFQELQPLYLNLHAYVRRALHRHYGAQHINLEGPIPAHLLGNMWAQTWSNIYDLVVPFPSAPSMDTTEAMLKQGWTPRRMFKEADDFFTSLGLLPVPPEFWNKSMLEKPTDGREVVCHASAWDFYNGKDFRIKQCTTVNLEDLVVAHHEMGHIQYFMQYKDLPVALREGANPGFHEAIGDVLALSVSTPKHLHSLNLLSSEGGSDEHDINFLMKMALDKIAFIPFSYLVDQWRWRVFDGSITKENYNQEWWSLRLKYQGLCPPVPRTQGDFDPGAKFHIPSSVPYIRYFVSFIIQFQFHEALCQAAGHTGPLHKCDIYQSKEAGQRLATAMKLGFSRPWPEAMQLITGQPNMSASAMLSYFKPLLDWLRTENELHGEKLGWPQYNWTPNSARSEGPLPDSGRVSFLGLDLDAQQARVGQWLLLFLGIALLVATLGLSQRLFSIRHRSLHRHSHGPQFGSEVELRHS
T2 sequence (P27470 39-1592): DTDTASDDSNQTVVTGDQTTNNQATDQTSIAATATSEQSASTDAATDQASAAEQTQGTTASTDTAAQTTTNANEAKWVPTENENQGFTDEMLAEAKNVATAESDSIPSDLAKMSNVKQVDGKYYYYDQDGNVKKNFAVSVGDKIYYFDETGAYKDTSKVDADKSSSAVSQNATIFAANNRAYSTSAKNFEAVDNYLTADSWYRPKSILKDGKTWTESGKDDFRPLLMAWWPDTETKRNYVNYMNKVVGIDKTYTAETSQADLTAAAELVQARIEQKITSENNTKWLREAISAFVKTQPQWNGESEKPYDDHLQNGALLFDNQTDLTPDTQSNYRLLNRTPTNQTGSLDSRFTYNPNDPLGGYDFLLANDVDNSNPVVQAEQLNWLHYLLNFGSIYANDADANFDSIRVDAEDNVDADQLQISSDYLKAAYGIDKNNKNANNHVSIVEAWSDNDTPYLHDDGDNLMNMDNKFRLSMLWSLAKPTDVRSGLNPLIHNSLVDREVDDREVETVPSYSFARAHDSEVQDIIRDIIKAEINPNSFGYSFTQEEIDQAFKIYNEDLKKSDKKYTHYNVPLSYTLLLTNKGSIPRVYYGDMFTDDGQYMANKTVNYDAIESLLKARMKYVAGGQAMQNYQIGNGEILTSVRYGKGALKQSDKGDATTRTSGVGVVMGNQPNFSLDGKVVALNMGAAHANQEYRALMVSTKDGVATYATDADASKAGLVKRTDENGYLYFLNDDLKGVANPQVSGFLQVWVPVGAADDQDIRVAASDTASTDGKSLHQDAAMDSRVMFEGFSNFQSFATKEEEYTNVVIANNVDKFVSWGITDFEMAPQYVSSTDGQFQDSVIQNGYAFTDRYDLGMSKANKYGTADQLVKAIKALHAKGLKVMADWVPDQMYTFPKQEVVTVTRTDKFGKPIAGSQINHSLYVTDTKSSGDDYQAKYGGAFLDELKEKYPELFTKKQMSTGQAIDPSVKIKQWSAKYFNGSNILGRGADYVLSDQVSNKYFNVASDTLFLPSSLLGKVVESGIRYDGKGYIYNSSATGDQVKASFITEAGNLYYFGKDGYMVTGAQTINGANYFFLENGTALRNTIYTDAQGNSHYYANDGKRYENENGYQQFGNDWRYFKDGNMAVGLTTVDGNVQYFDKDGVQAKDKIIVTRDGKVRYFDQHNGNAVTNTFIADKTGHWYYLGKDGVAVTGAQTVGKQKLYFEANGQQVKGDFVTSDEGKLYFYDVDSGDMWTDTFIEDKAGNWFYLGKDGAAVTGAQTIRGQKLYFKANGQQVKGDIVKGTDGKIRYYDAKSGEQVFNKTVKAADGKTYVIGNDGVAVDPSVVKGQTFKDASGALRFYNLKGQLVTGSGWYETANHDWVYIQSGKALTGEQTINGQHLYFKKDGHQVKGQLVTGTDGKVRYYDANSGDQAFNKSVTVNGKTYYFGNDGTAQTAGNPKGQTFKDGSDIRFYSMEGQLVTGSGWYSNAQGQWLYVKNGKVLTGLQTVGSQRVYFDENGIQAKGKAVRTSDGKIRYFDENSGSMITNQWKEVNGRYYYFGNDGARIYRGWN

In the case of `O=C(O[C@@H]1Cc2c(O)cc(O)cc2O[C@@H]1c1cc(O)c(O)c(O)c1)c1cc(O)c(O)c(O)c1` [EGCg, (-)-epigallocatechin gallate], the “amount showing 50% antimutagenic activity to Trp-P-2” value ([1]; 1 μg of Trp-P-2, FIG. 13) is reported as “about 51 μg”, the “amount showing 50% antimutagenic activity to benzo[a]pyrene” value ([1]; 5 μg of benzo[a]pyrene, FIG. 14) is reported as “about 56 μg” and the IC50 [2] is reported as 300 µM.

For `O=c1c(O)c(-c2ccc(O)c(O)c2)oc2cc(O)cc(O)c12` [quercetin], the “antioxidative activity (amount of peroxylipid formed, absorbance at 500 nm)” value (from here on “antioxidative activity”) [3] was “antioxidative activities equivalent to those of BHA and BHT”.

With `O=C(CCc1ccc(O)cc1)c1c(O)cc(O)cc1O[C@@H]1O[C@H](CO)[C@@H](O)[C@H](O)[C@H]1O` [phloridzin] the “GTase-inhibiting activity (in words)” value [4] was “very low GTase-inhibiting activity” and the “antioxidative activity” value [3] was “no antioxidative activity”.

In the case of `O=C(O)c1cc(=O)c2c(OCC(O)COc3cccc4oc(C(=O)O)cc(=O)c34)cccc2o1` [sodium cromoglicate], the IC50 (hyaluronidase) is reported as about 109 µM.

With `C[C@@H]1O[C@@H](OC[C@H]2O[C@@H](Oc3c(-c4ccc(O)c(O)c4)oc4cc(O)cc(O)c4c3=O)[C@H](O)[C@@H](O)[C@@H]2O)[C@H](O)[C@H](O)[C@H]1O` [rutin] the “antioxidative activity” value [3] was “antioxidative activities equivalent to those of BHA and BHT”.

For `NCCCC(=O)O` [GABA, γ-aminobutyric acid], the “ACE-inhibiting activity (in words)” value [2] was “no ACE-inhibiting activity”.

With `O=C(/C=C/c1ccc(O)c(O)c1)O[C@@H]1C[C@](O)(C(=O)O)C[C@@H](O)[C@H]1O` [chlorogenic acid] the “GTase-inhibiting activity (in words)” value [4] was “very low GTase-inhibiting activity”.

For `Oc1cc(O)c2c(c1)O[C@H](c1ccc(O)c(O)c1)[C@@H](O)C2` [(+)-catechin], the “antioxidative activity” value [3] was “antioxidative activities equivalent to those of BHA and BHT”.

With `O=C(CCc1ccc(O)cc1)c1c(O)cc(O)cc1O` [phloretin] the “antioxidative activity” value [3] was “no antioxidative activity”.

For `O=C(O)/C=C/c1ccc(O)cc1` [p-coumaric acid], the “antioxidative activity” value [3] was “no antioxidative activity”.

`O=C(O[C@@H]1Cc2c(O)cc(O)cc2O[C@@H]1c1ccc(O)c(O)c1)c1cc(O)c(O)c(O)c1` [ECg, (-)-epicatechin gallate] showed an IC50 [4] of about 452 µM and an IC50 ([2]; pure polyphenol compounds, FIG. 9, read-out: IC50 to ACE) of 2000 µM.

With `O=C(O)/C=C/c1ccc(O)c(O)c1` [caffeic acid] the “antioxidative activity” value [3] was “antioxidative activities equivalent to those of BHA and BHT”.

In the case of `Oc1cc(O)c2c(c1)O[C@H](c1ccc(O)c(O)c1)[C@H](O)C2` [(-)-epicatechin], the “GTase-inhibiting activity (in words)” value [4] is reported as “very low GTase-inhibiting activity” and the “antioxidative activity” value [3] is reported as “antioxidative activities equivalent to those of BHA and BHT”.
